Assay in all cases: DSF
Holding throughout (type): binding

Experiment [1] concerns the target T1, BMPR2 (Homo sapiens, UniProt Q13873).
T1 construct: purchased in-house DSF panel (SGC Frankfurt)
T1 sequence (Q13873 27-1038): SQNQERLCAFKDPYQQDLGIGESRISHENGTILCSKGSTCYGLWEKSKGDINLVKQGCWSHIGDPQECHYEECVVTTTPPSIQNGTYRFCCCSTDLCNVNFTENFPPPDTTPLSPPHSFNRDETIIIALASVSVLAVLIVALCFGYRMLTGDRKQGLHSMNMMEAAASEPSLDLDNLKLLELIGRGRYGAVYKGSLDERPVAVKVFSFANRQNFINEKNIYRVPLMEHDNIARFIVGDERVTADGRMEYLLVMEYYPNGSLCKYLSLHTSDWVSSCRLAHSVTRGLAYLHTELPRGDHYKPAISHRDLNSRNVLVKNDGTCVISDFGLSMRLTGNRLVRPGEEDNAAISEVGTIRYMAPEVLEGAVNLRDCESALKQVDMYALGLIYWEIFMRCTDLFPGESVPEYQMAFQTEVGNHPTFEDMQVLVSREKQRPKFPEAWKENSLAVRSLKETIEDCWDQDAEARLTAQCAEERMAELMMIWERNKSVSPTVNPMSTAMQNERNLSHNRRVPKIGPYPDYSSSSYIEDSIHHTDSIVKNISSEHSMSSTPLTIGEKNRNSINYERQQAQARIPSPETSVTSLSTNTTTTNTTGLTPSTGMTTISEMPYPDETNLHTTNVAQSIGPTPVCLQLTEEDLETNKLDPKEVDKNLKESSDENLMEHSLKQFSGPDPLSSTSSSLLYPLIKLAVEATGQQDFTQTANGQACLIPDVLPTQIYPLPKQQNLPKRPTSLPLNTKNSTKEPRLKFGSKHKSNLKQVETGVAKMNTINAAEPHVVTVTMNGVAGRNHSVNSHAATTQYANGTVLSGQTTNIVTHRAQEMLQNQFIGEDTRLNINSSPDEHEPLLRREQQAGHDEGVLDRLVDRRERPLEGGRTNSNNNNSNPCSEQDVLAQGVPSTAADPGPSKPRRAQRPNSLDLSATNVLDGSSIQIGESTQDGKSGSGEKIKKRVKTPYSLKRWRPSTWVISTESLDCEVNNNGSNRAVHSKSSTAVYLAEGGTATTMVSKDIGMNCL
Experimental: (§2) Recombinant protein kinase domains with a concentration of 2 μM were mixed with a 10 μM compound solution in DMSO, 20 mM HEPES, pH 7.5, and 500 mM NaCl. SYPRO Orange (5000×, Invitrogen) was added as a fluorescence probe (1 µl per mL). Subsequently, temperature-dependent protein unfolding profiles were measured, using the QuantStudio™ 5 realtime PCR machine (Thermo Fisher, Waltham, MA, USA). […] The temperature was raised with a step rate of 3 °C per minute. Data points were analyzed with the internal software (Thermal Shift SoftwareTM Version 1.4, Thermo Fisher) using the Boltzmann equation to determine the inflection point of the transition curve [56]. Differences in melting temperature are given as ΔTm values in °C. Measurements were performed in duplicates.

In experiment [2] the target is T2, MAP2K6 (Homo sapiens, UniProt P52564).
T2 construct: purchased in-house DSF panel (SGC Frankfurt)
T2 sequence (P52564 53-314): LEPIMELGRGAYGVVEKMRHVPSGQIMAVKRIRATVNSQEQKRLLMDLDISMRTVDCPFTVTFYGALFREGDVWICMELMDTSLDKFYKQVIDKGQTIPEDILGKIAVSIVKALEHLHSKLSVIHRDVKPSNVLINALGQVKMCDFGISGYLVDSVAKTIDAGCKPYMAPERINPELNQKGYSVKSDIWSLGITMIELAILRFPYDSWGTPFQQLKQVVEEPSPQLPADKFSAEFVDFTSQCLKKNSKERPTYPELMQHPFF
Experimental: as §2

Experiment [3] has as its target T3, GSG2 (Homo sapiens, UniProt Q8TF76).
T3 construct: purchased in-house DSF panel (SGC Frankfurt)
T3 sequence (Q8TF76 465-798): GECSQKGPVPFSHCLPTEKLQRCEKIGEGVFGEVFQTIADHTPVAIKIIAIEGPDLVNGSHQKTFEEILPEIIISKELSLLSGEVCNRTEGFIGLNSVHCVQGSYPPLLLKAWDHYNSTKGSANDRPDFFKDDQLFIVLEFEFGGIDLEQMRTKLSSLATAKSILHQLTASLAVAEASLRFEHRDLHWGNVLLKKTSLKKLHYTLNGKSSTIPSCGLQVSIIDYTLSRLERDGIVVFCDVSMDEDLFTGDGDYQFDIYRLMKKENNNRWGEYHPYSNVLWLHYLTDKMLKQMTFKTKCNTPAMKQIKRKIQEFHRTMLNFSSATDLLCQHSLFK
Experimental: as §2

The test system of experiment [4] is TAF1.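 Also: compound tested at 10 µM with 2 µM protein.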
Experimental: as §2
Experiment [5] addresses T4, VRK1 (Homo sapiens, UniProt Q99986).
T4 construct: purchased in-house DSF panel (SGC Frankfurt)
T4 sequence (Q99986 1-396): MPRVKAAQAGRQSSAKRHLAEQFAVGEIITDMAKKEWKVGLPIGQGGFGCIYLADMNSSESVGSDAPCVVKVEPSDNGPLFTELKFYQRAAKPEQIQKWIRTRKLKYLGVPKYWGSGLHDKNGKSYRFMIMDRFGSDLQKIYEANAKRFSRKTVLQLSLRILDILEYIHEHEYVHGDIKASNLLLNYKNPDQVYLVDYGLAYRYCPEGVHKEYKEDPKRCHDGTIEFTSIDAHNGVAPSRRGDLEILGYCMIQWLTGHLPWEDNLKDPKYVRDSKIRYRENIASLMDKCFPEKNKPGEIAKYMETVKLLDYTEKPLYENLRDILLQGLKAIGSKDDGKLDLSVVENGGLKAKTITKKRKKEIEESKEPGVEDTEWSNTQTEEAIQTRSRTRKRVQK
The protocol:
(§1) Recombinant protein kinase domains with a concentration of 2 μM were mixed with a 10 μM compound solution in DMSO, 20 mM HEPES, pH 7.5, and 500 mM NaCl. SYPRO Orange (5000×, Invitrogen) was added as a fluorescence probe (1 µl per mL). Subsequently, temperature-dependent protein unfolding profiles were measured, using the QuantStudio™ 5 realtime PCR machine (Thermo Fisher, Waltham, MA, USA). […] The temperature was raised with a step rate of 3 °C per minute. Data points were analyzed with the internal software (Thermal Shift SoftwareTM Version 1.4, Thermo Fisher) using the Boltzmann equation to determine the inflection point of the transition curve. Differences in melting temperature are given as ΔTm values in °C. Measurements were performed in duplicates.

Experiment [6] concerns the target T5, PAK4 (Homo sapiens, UniProt O96013).
T5 construct: purchased in-house DSF panel (SGC Frankfurt)
The protocol:
as §1

Experiment [7] addresses T6, FGFR1 (Homo sapiens, UniProt P11362).
T6 construct: purchased in-house DSF panel (SGC Frankfurt)
The protocol:
as §1

The target of experiment [8] is T7, BRD4 (Homo sapiens, UniProt O60885).
T7 construct: purchased in-house DSF panel (SGC Frankfurt)

The target of experiment [9] is T8, BRAF (Homo sapiens, UniProt P15056).
T8 construct: purchased in-house DSF panel (SGC Frankfurt)
T8 sequence (P15056 444-723): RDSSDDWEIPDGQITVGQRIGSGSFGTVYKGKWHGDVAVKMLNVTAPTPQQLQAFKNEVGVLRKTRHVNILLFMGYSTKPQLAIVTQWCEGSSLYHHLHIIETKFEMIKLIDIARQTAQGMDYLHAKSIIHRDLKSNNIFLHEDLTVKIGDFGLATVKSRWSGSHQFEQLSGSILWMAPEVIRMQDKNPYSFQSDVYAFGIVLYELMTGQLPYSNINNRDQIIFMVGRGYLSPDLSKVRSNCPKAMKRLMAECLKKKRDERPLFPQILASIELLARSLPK
Experimental: as §2

Experiment [10] deals with T9, CSNK1D (Homo sapiens, UniProt P48730).
T9 construct: purchased in-house DSF panel (SGC Frankfurt)
T9 sequence (P48730 1-294): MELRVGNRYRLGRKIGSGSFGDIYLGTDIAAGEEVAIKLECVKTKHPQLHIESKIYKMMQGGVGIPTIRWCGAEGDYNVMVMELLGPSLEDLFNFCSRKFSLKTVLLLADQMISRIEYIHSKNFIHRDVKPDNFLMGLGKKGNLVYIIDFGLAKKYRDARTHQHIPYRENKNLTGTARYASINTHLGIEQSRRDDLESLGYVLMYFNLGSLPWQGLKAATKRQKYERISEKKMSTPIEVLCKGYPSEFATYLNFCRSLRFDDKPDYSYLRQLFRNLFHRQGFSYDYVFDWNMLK
Experimental: as §2

The source of these data is article PMC9736855, “Discovery of 3-Amino-1H-pyrazole-Based Kinase Inhibitors to Illuminate the Understudied PCTAIRE Family” (International Journal of Molecular Sciences, 2022).
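For ΔTm CSNK1D in this document: compound tested at 10 µM with 2 µM protein.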

T6 sequence (P11362 456-765): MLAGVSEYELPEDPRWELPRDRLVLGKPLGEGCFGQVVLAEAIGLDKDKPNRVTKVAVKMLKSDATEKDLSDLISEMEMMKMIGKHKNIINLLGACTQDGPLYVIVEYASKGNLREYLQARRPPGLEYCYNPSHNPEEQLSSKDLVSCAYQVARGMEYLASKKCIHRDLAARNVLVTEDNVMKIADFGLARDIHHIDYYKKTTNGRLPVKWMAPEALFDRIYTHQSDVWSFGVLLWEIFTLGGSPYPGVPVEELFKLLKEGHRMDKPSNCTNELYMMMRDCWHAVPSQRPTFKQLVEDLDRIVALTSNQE
T5 sequence (O96013 291-591): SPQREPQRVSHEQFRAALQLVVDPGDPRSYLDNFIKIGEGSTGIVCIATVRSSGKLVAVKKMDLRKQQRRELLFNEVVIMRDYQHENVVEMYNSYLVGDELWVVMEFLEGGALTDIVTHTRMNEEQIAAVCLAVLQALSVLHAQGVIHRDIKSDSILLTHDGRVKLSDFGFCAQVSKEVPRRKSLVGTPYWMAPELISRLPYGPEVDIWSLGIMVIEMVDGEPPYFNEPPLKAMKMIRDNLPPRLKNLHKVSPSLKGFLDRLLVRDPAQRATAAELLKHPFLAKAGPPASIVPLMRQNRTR

Take `CC(C)(C)OC(=O)Nc1ccc(CNc2nccc(Nc3cc(C(=O)OC(C)(C)C)[nH]n3)n2)cc1` [43d, tert-butyl 3-((2-((4-((tert-butoxycarbonyl)amino)benzyl)amino)pyrimidin-4-yl)amino)-1H-pyrazole-5-carboxylate]: the “ΔTm BMPR2” value in experiment [1] turned out to be 1.4 °C. The “ΔTm MAP2K6” value in experiment [2] was 3.0 °C. In addition, the “ΔTm GSG2” value in experiment [3] is -0.3 °C. Moreover, the “ΔTm TAF1” value in [4] was determined as 0.0 °C. The “ΔTm VRK1” value in [5] came out at 0.9 °C. Besides, the “ΔTm PAK4” value in experiment [6] is -0.9 °C. The “ΔTm FGFR1” value in experiment [7] was 0.6 °C. For the same molecule, the “ΔTm BRD4” value in experiment [8] was -1.5 °C. The “ΔTm BRAF” value in experiment [9] worked out at 0.7 °C. The “ΔTm CSNK1D” value in experiment [10] was 1.0 °C.
In the case of `CC(C)OC(=O)c1cc(Nc2ccnc(NCc3ccc(NC(=O)OC(C)(C)C)cc3)n2)n[nH]1` [42d, isopropyl 3-((2-((4-((tert-butoxycarbonyl)amino)benzyl)amino)pyrimidin-4-yl)amino)-1H-pyrazole-5-carboxylate], in [1], the “ΔTm BMPR2” value is 0.9 °C. Besides, the “ΔTm MAP2K6” value in [2] was 5.0 °C. Further, in experiment [3], the “ΔTm GSG2” value came out at 0.5 °C. Besides, the “ΔTm TAF1” value in experiment [4] is 0.5 °C. Moreover, the “ΔTm VRK1” value in [5] stood at 0.5 °C. Further, in experiment [6], the “ΔTm PAK4” value was -0.2 °C. The “ΔTm FGFR1” value in experiment [7] came to 0.4 °C. For the same molecule, the “ΔTm BRD4” value in [8] is -2.1 °C. Moreover, in experiment [9], the “ΔTm BRAF” value was 0.4 °C. The “ΔTm CSNK1D” value in experiment [10] stood at 0.8 °C.
Take `COC(=O)c1cc(Nc2ccnc(NCCOCCNC(=O)OC(C)(C)C)n2)[nH]n1` [21d, methyl 5-((2-((2-(2-((tert-butoxycarbonyl)amino)ethoxy)ethyl)amino)pyrimidin-4-yl)amino)-1H-pyrazole-3-carboxylate]: the “ΔTm BMPR2” value in [1] is 0.7 °C. The “ΔTm MAP2K6” value in [2] amounted to 1.4 °C. In addition, the “ΔTm GSG2” value in [3] is 0.2 °C. In addition, the “ΔTm TAF1” value in experiment [4] is 0.0 °C. In addition, the “ΔTm VRK1” value in experiment [5] was determined as 1.0 °C. In addition, in experiment [6], the “ΔTm PAK4” value was 1.0 °C. Besides, the “ΔTm FGFR1” value in experiment [7] came to 0.5 °C. Moreover, in experiment [8], the “ΔTm BRD4” value is 0.7 °C. Further, the “ΔTm BRAF” value in experiment [9] worked out at 0.9 °C. Further, in experiment [10], the “ΔTm CSNK1D” value was found to be 0.2 °C.
With `N#CCc1ccc(Nc2nccc(Nc3cc(C4CC4)[nH]n3)n2)cc1` [compound 1, reference compound], the “ΔTm BMPR2” value in [1] was found to be 9.2 °C. The “ΔTm MAP2K6” value in experiment [2] stood at 10.4 °C. In addition, the “ΔTm GSG2” value in experiment [3] was found to be 2.9 °C. Further, the “ΔTm TAF1” value in experiment [4] stood at 0.1 °C. The “ΔTm VRK1” value in experiment [5] came to 5.9 °C. The “ΔTm PAK4” value in experiment [6] was 7.7 °C. In addition, the “ΔTm FGFR1” value in experiment [7] came to 4.5 °C. For the same molecule, the “ΔTm BRD4” value in experiment [8] turned out to be 1.3 °C. Moreover, the “ΔTm BRAF” value in experiment [9] worked out at 4.6 °C. Moreover, the “ΔTm CSNK1D” value in experiment [10] was 3.1 °C.
On to `COC(=O)c1cc(Nc2ccnc(NCc3ccc(NC(=O)OC(C)(C)C)cc3)n2)[nH]n1` [21i, methyl 5-((2-((4-((tert-butoxycarbonyl)amino)benzyl)amino)pyrimidin-4-yl)amino)-1H-pyrazole-3-carboxylate], for which the “ΔTm BMPR2” value in experiment [1] stood at 1.1 °C. In experiment [2], the “ΔTm MAP2K6” value worked out at 5.4 °C. Also, the “ΔTm GSG2” value in [3] is -0.2 °C. Moreover, the “ΔTm TAF1” value in experiment [4] is 0.2 °C. Also, the “ΔTm VRK1” value in experiment [5] was found to be 1.1 °C. Further, the “ΔTm PAK4” value in experiment [6] came to 0.2 °C. Further, the “ΔTm FGFR1” value in experiment [7] is 0.0 °C. In addition, in [8], the “ΔTm BRD4” value stood at 1.0 °C. For the same molecule, the “ΔTm BRAF” value in experiment [9] worked out at 1.0 °C. The “ΔTm CSNK1D” value in experiment [10] was determined as 0.4 °C.
